The results in this text go back to patent publication US20200031778A1, “NOVEL 5-SUBSTITUTED IMIDAZOLYLMETHYL DERIVATIVES” (Bayer CropScience Aktiengesellschaft, priority 2016, published 2020).

Each structure is given as a SMILES string.

The first data set is described as follows: Log P by HPLC on reversed phase columns (EEC directive 79/831 Annex V.A8; methods [a], [b], [c]). In kind it is physicochemical.
Conditions: not given
In outline:
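Reversed-phase HPLC with LC-UV detection, 10→95% acetonitrile linear gradient; aqueous eluent 0.1% formic acid [a], 0.001 M ammonium acetate, neutral [b], or 0.1% phosphoric acid [c]. Calibrated against C3–C16 alkan-2-ones of known Log P by retention-time linear interpolation; multiple values within a method separated by "+".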
Take `CCCCC(O)(Cn1cncc1C#N)c1ccc(Cl)cc1F` (centres unmarked) [I-263]: the LogP was 3.19^[a].
With `CC(C)CC#CC(O)(CC1CC1)Cn1cncc1C#N` (centres unmarked) [I-451], the LogP is 2.52^[a].
Same read-out and setting: to `CC(C)(C)C(O)(Cn1cncc1C#N)c1ccc(Cl)cc1F` (centres unmarked) [I-342] belongs 3.00^[a]; to `CC(O)(Cn1cncc1Cl)c1ccc(Oc2ccc(Br)cc2)cc1Br` (centres unmarked) [I-185], 3.06^[a].
On to `N#Cc1cncn1CC(O)(c1ccc(Cl)nc1F)C1(Cl)CC1` (centres unmarked) [I-554], for which the LogP was 2.15^[a].
Turning to `CCCC(C)C(O)(Cn1cncc1C#N)c1ccc(Cl)cc1Cl` (single isomer, unassigned) [I-316], the LogP was 3.72^[a].
Still for that read-out and setting: to `CCc1ccc(C(O)(Cn2cncc2C#N)C2(Cl)CC2)c(Cl)c1` (centres unmarked) [I-353] belongs 2.86^[a]; to `N#Cc1cncn1CC(O)(C#Cc1cc(F)cc(F)c1)C1(Cl)CC1` (centres unmarked) [I-319], 2.59^[a]; to `OC(Cn1cncc1F)c1cnc(Oc2ccc(C(F)(F)F)cc2)cc1Br` (centres unmarked) [I-122], 1.94^[a].
As to `C[Si](C)(C)C=CC(O)(Cn1cncc1C(F)(F)F)C1(Cl)CC1` (centres unmarked) [I-690], the LogP was 3.85^[a].
Same read-out and setting: next, `N#Cc1cncn1CC(=O)c1cnc(Oc2ccc(S(F)(F)(F)(F)F)cc2)cc1C(F)(F)F` [IX-81]: 3.67^[a]; `N#Cc1cncn1CC(O)c1cnc(Oc2ccc(Cl)cc2F)cc1C(F)(F)F` (centres unmarked) [I-114]: 3.13^[a].
Regarding `CC(O)(Cn1cncc1C#N)c1ccc(Oc2ccc(Cl)cc2F)nc1C(F)(F)F` (centres unmarked) [I-279], the LogP was 3.14^[a].
Same read-out and setting: to `OC(CCCC1CCCCC1)(Cn1cncc1C(F)(F)F)C1(Cl)CC1` (centres unmarked) [I-676] belongs 5.19^[a]; to `CCC(O)(Cn1cncc1C#N)c1ccc(Cl)cc1` (centres unmarked) [I-222], 2.32^[a].
The same measure, in the same setting: to `OC(Cn1cncc1Cl)c1ccc(Oc2ccc(I)cc2)cc1Br` (centres unmarked) [I-101] belongs 2.80^[a]; to `N#Cc1cncn1CC(O)(c1ccc(Cl)cc1)C1CC1` (centres unmarked) [I-305], 2.27^[a]; to `CC(O)(Cn1cncc1C#N)c1cnc(Oc2ccc(Br)nc2)cc1C(F)(F)F` (centres unmarked) [I-362], 2.58^[a].
The same measure, in the same setting: to `N#Cc1cncn1CC(O)c1ccc(Oc2ccc(Cl)cc2)nc1C(F)(F)F` (centres unmarked) [I-124] belongs 3.15^[a]; to `OC(Cn1cncc1Br)c1ccc(Oc2ccc(Cl)nc2)nc1Cl` (centres unmarked) [I-17], 1.69^a.
Turning to `OC(Cn1cncc1F)c1ccc(Oc2ccc(Cl)cc2)cc1C(F)(F)F` (centres unmarked) [I-98], the LogP was 2.39^[a].
Consider `N#Cc1cncn1CC(O)(c1cc(Cl)c(F)cc1Cl)C1(F)CC1` (centres unmarked) [I-575], for which the LogP is 2.54^[a].
Turning to `CCCCC(O)(Cn1cncc1C#N)c1ccc(Cl)cc1Cl` (centres unmarked) [I-261], the LogP was 3.41^[a].
The same measure, in the same setting: next, `COC(C)(Cn1cncc1C#N)c1ccc(Oc2ccc(Br)cc2)cc1C(F)(F)F` (centres unmarked) [I-296]: 4.51^[a]; `CCC(C)C(O)(Cn1cncc1C#N)c1ccc(Cl)cc1` (single isomer, unassigned) [I-326]: 2.78^[a].
On to `OC(Cn1cncc1Cl)c1ccc(Oc2ccc(OC(F)(F)F)cc2)cc1Cl` (centres unmarked) [I-04], for which the LogP was 2.82^[a].
The same measure, in the same setting: to `N#Cc1cncn1CC(O)c1ccc(Oc2ccc(C(F)(F)F)nc2)nc1C(F)(F)F` (centres unmarked) [I-143] belongs 2.56^[a]; to `N#CCOC(Cn1cncc1C#N)c1ccc(Oc2ccc(Br)cc2)cc1C(F)(F)F` (centres unmarked) [I-87], 3.73^[a].
On the same count and under the same terms, next, `CCCCC(O)(Cn1cncc1C#N)c1ccc(F)cc1Cl` (centres unmarked) [I-276]: 2.95^[a].
Still for that read-out and setting: next, `CC(C)(C)CC(O)(Cn1cncc1C#N)c1ccc(C(F)(F)F)cc1` (centres unmarked) [I-272]: 3.35^[a]; `C[Si](C)(C#CC(O)(Cn1cncc1C#N)C1(Cl)CC1)c1ccccc1` (centres unmarked) [I-594]: 3.31^[a].
`COC(Cn1cncc1C#N)c1ccc(Oc2ccc(Cl)cc2)cc1Br` (centres unmarked) [I-61]: the LogP is 4.08^[a].
The same measure, in the same setting: next, `COC(Cn1cncc1Cl)c1ccc(Oc2ccc(Cl)cc2)cc1C(F)F` (centres unmarked) [I-75]: 3.15^[a].
On the same count and under the same terms, to `N#Cc1cncn1CC(O)(c1cnc(Cl)cc1Br)C1(F)CC1` (centres unmarked) [I-560] belongs 1.98^[a]; to `N#Cc1cncn1CC(O)c1ccc(Oc2ccc(Cl)cc2)cc1C(F)F` (centres unmarked) [I-72], 3.09^[a]; to `N#Cc1cncn1CC(O)c1ccc(Oc2ccc(Cl)cc2)cc1C(F)(F)F` (centres unmarked) [I-41], 3.35^[a].
The same measure, in the same setting: to `N#Cc1cncn1CC(O)(c1ccc(F)cc1Br)C1(F)CC1` (centres unmarked) [I-357] belongs 2.31^[a].
On to `N#Cc1cncn1CC(O)(c1ccc(F)cc1)C1CC1` (centres unmarked) [I-411], for which the LogP is 1.98^[a].
Consider `C#Cc1ccc(C(O)(Cn2cncc2C#N)C2(F)CC2)c(F)c1` (centres unmarked) [I-647], for which the LogP is 2.21^[a].
On the same count and under the same terms, to `CC(O)(Cn1cncc1Cl)c1ccc(Oc2ccc(Cl)cn2)cc1Cl` (centres unmarked) [I-181] belongs 2.28^[a]; to `OC(Cn1cncc1Cl)c1ccc(Oc2ccc(I)cc2)cc1F` (centres unmarked) [I-31], 2.51^[a]; to `N#Cc1cncn1CC(O)(c1ccc(F)cc1Cl)C1CC1` (centres unmarked) [I-412], 2.41^[a].
For `N#Cc1cncn1CC(O)(c1ccc(C#CC2CCCC2)cc1Cl)C1(Cl)CC1` (centres unmarked) [I-656], the LogP was 4.15^[a].
For the molecule `N#Cc1cncn1CC(O)(c1c(F)cc(F)cc1Br)C1(Cl)CC1` (centres unmarked) [I-566], the LogP was 2.49^[a].
On the same count and under the same terms, next, `CC(O)(Cn1cncc1Cl)c1ccc(Oc2ccc(Br)cc2)cc1Cl` (centres unmarked) [I-173]: 2.80^[a]; `N#Cc1cncn1CC(O)c1ccc(Oc2ccc(Br)cc2)cc1Br` (centres unmarked) [I-47]: 3.33^[a].
Take `N#Cc1cncn1CC(O)(c1ccc(-c2ccccc2)cc1)C1(Cl)CC1` (centres unmarked) [I-280]: the LogP was 2.94^[a].
Same read-out and setting: next, `CC(=O)c1cncn1CC(C)(O)c1ccc(Oc2ccc(C(C)C)cc2)nc1C(F)(F)F` (centres unmarked) [I-299]: 3.33^[a]; `COC(Cn1cncc1C#N)c1ccc(Oc2ccc(Cl)cc2)cc1C(F)(F)F` (centres unmarked) [I-81]: 4.15^[a].
The same measure, in the same setting: next, `CC(O)(Cn1cncc1C#N)c1cnc(Oc2ccc(C(F)(F)F)cc2)cc1C(F)(F)F` (centres unmarked) [I-251]: 3.51^[a]; `N#Cc1cncn1CC(O)c1ccc(Oc2ccc(C(F)(F)F)cc2)nc1` (centres unmarked) [I-129]: 2.55^[a]; `N#Cc1cncn1CC(O)(c1ccc(F)cc1Br)C1CCCCC1` (centres unmarked) [I-479]: 3.46^[a].
The same measure, in the same setting: next, `OC(Cn1cncc1F)c1cnc(Oc2ccc(Cl)cc2F)cc1C(F)(F)F` (centres unmarked) [I-113]: 2.35^[a].
As to `N#Cc1cncn1CC(O)(c1ccc(F)c(Cl)c1F)C1(Cl)CC1` (centres unmarked) [I-627], the LogP is 2.52^[a].
Take `N#Cc1cncn1CC(O)(CC1CCCCC1)c1ccc(Cl)cc1F` (centres unmarked) [I-468]: the LogP was 3.80^[a].
The same measure, in the same setting: to `COC(Cn1cncc1Cl)c1ccc(Oc2ccc(Br)cc2)cc1Br` (centres unmarked) [I-52] belongs 3.76^[a]; to `N#Cc1cncn1CC(O)(c1ccc(Cl)cc1Br)C1(F)CC1` (centres unmarked) [I-386], 2.66^[a].
Take `CC(C)(C)C(O)(Cn1cncc1Cl)c1cc2cc(OC(F)(F)F)ccc2o1` (centres unmarked) [I-215]: the LogP is 2.75^[a].
On to `OC(Cn1cncc1Br)c1ccc(Oc2ccc(C(F)(F)F)cc2)cc1C(F)(F)F` (centres unmarked) [I-38], for which the LogP is 2.96^[a].
Turning to `N#Cc1cncn1CC(O)(c1cc(Cl)cc(F)c1Cl)C1(F)CC1` (centres unmarked) [I-571], the LogP is 2.52^[a].
In the case of `Cc1ccc(C#CC(O)(Cn2cncc2C#N)C2(Cl)CC2)cc1` (centres unmarked) [I-293], the LogP is 2.82^[a].
`N#Cc1cncn1CC(O)(c1ccc(/C=C/C2CC2)cc1Cl)C1(Cl)CC1` (centres unmarked) [I-365]: the LogP was 3.37^[a].
Turning to `OC(Cn1cncc1F)c1ccc(Oc2ccc(Cl)cc2)nc1C(F)(F)F` (centres unmarked) [I-123], the LogP was 2.25^[a].
In the case of `N#Cc1cncn1CC(O)(c1ccc(C#CC2CC2)cc1Cl)C1(F)CC1` (centres unmarked) [I-639], the LogP is 3.03^[a].
Take `N#Cc1cncn1CC(O)(c1ccc(F)c(F)c1)C1(F)CC1` (centres unmarked) [I-445]: the LogP is 2.17^[a].
Turning to `CCOC(Cn1cncc1C#N)c1ccc(Oc2ccc(Br)cc2)cc1Br` (centres unmarked) [I-64], the LogP was 4.64^[a].
Same read-out and setting: to `COc1cc(F)ccc1C(O)Cn1cncc1Cl` (centres unmarked) [I-07] belongs 1.07^[a]; to `N#Cc1cncn1CC(O)(CC1CC1)c1cc(F)c(F)cc1F` (centres unmarked) [I-514], 2.36^[a]; to `CC(O)(Cn1cncc1Br)c1ccc(Oc2ccc(Cl)cc2)cc1Br` (centres unmarked) [I-170], 2.80^[a].
On the same count and under the same terms, next, `CC(O)(Cn1cncc1Cl)c1ccc(Oc2ccc(I)cc2)cc1Br` (centres unmarked) [I-187]: 3.25^[a]; `N#Cc1cncn1CC(O)(c1ccc(Br)cc1F)C1(F)CC1` (centres unmarked) [I-403]: 2.43^[a]; `C[Si](C)(C)CC(O)(Cn1cncc1C#N)c1ccccc1Br` (centres unmarked) [I-307]: 3.50^[a].
Same read-out and setting: to `CCCCCC(O)(Cn1cncc1C#N)c1ccc(Cl)cc1Cl` (centres unmarked) [I-302] belongs 3.83^[a].
As for `N#Cc1cncn1CC(O)(CC1CC1)c1cc(Cl)cc(Cl)c1` (centres unmarked) [I-503], the LogP was 2.28^[a].
Take `N#Cc1cncn1CC(O)(c1ccc(Br)cc1Cl)C1(Cl)CC1` (centres unmarked) [I-648]: the LogP is 2.70^[a].
The same measure, in the same setting: next, `N#Cc1cncn1CC(O)(c1ccc(Br)cc1Cl)C1CC1` (centres unmarked) [I-420]: 2.88^[a]; `OC(Cn1cncc1Cl)c1ccc(Oc2ccc(C(F)(F)F)cc2)cc1Cl` (centres unmarked) [I-09]: 2.82^[a].
Turning to `N#Cc1cncn1CC(O)(c1cc(F)c(F)cc1Cl)C1(Cl)CC1` (centres unmarked) [I-584], the LogP is 2.49^[a].
Consider `OC(Cn1cncc1Cl)c1ccc(Oc2ccc(Br)nc2)cc1Cl` (centres unmarked) [I-77], for which the LogP is 1.92^[a].
The same measure, in the same setting: next, `C[Si](C)(C)C#Cc1ccc(C(O)(Cn2cncc2C#N)C2(Cl)CC2)c(F)c1` (centres unmarked) [I-650]: 4.03^[a]; `CCCC(O)(Cn1cncc1C#N)c1ccc(F)cc1F` (centres unmarked) [I-400]: 2.39^[a].

Staying with this data set, now noted: reversed phase HPLC column; method [a]: LC-UV, acidic range, 0.1% formic acid in water and acetonitrile as eluent (linear gradient from 10% to 95% acetonitrile).
In the case of `N#Cc1cncn1CC(=O)c1ccco1` [IX-146], the chromatographic logP amounted to 0.92.
Same read-out and setting: next, `O=C(Cn1cncc1Br)c1ccc(Oc2ccc(Cl)cc2)cc1F` [IX-46]: 2.86.
